According to ChEMBL document CHEMBL5620412, “Discovery of benzofuran-2-carboxylic acid derivatives as lymphoid tyrosine phosphatase (LYP) inhibitors for cancer immunotherapy” (Eur J Med Chem, 2023):
Calls of active or inactive are those of the source. The rule behind the calls is not given here.

Assays:
[1] = test system: MC-38; assay: Antitumor immunity against mouse MC-38 cells implanted in syngenic C57BL/6J mouse model assessed as increase in CD8+ T cell proportion in tumor at 50 mg/kg, IG administered twice daily for 14 days by flow cytometric analysis; format: functional, organism-based; conditions: time 14.0 day
[2] = test system: MC-38; assay: Antitumor immunity against mouse MC-38 cells implanted in syngenic C57BL/6J mouse model assessed as inhibition of M2 polarization of tumor associated macrophage in tumor at 50 mg/kg, IG administered twice daily for 14 days by flow cytometric analysis; format: functional, organism-based; conditions: time 14.0 day
[3] = test system: MC-38; assay: Antitumor immunity against mouse MC-38 cells implanted in syngenic C57BL/6J mouse model assessed as increase in M1 tumor associated macrophage proportion in tumor at 50 mg/kg, IG administered twice daily for 14 days by flow cytometric analysis; format: functional, organism-based; conditions: time 14.0 day
[4] = test system: MC-38; assay: Antitumor activity against mouse MC-38 cells implanted in syngenic C57BL/6J mouse model assessed as tumor growth inhibition at 50 mg/kg, IG administered twice daily for 14 days in presence of anti-PD-L1 antibody relative to control; format: functional; conditions: MC-38, po, 336 h, time 14 day, read-out: TGI
[5] = target: T1, Tyrosine-protein phosphatase non-receptor type 22 (Homo sapiens) (UniProt Q9Y2R2); assay: Reversible binding affinity to N-terminal His-tagged LYP catalytic domain (1 to 294 residues) (unknown origin) expressed in Escherichia coli BL21 (DE3) cells using pNPP as substrate incubated for 10 to 90 mins by absorbance based assay; conditions: time 10-90 min
T1 sequence (whole entry): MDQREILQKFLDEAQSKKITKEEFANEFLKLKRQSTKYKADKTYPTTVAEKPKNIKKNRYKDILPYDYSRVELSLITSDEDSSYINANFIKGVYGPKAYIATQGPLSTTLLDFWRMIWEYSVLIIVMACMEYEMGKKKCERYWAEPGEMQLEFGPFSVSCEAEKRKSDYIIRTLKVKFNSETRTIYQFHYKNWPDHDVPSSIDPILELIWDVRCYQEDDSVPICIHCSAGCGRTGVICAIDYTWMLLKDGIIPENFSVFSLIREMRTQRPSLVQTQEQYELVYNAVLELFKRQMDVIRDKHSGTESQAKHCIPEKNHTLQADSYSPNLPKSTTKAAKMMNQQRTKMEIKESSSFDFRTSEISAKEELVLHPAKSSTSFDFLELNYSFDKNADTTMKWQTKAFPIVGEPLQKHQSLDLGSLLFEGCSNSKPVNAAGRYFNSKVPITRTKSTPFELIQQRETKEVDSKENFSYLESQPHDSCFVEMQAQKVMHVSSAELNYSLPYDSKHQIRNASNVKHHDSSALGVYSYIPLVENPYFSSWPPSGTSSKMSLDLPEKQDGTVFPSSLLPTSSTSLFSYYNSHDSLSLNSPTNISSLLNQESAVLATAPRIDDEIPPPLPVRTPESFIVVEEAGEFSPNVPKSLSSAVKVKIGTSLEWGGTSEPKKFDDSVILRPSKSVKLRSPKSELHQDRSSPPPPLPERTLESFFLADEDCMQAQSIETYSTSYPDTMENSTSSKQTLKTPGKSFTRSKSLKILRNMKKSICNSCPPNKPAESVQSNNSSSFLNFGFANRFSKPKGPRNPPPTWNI

[6] = test system: MC-38; assay: Antitumor immunity against mouse MC-38 cells implanted in syngenic C57BL/6J mouse model assessed as increase in M1 tumor associated macrophage proportion in spleen at 50 mg/kg, IG administered twice daily for 14 days by flow cytometric analysis; format: functional, organism-based; conditions: time 14.0 day
[7] = test system: MC-38; assay: Antitumor activity against mouse MC-38 cells implanted in syngenic C57BL/6J mouse model assessed as tumor growth inhibition at 50 mg/kg, IG administered twice daily for 14 days relative to control; format: functional; conditions: MC-38, po, 336 h, time 14 day, read-out: TGI
[8] = test system: MC-38; assay: Antitumor immunity against mouse MC-38 cells implanted in syngenic C57BL/6J mouse model assessed as increase in Ki67 positive CD8+ T cells at 50 mg/kg, IG administered twice daily for 14 days by Ki67 staining based flow cytometric analysis; format: functional, organism-based; conditions: time 14.0 day
[9] = test system: MC-38; assay: Antitumor immunity against mouse MC-38 cells implanted in syngenic C57BL/6J mouse model assessed as inhibition of M2 polarization of tumor associated macrophage in spleen at 50 mg/kg, IG administered twice daily for 14 days by flow cytometric analysis; format: functional, organism-based; conditions: time 14.0 day
[10] = test system: MC-38; assay: Antitumor immunity against mouse MC-38 cells implanted in syngenic C57BL/6J mouse model assessed as increase in NKT cell proportion at 50 mg/kg, IG administered twice daily for 14 days; format: functional, organism-based; conditions: time 14.0 day
[11] = test system: MC-38; assay: Antitumor activity against mouse MC-38 cells implanted in syngenic C57BL/6J mouse model at 50 mg/kg, IG administered twice daily for 14 days by H&E staining based analysis; format: functional, organism-based; conditions: time 14.0 day
[12] = test system: MC-38; assay: Antitumor immunity against mouse MC-38 cells implanted in syngenic C57BL/6J mouse model assessed as upregulation of PD-L1 expression in macrophages at 50 mg/kg, IG administered twice daily for 14 days by flow cytometric analysis; format: functional, organism-based; conditions: time 14.0 day
[13] = test system: MC-38; assay: Antiproliferative activity against mouse MC-38 cells assessed as reduction in cell viability upto 4 uM incubated for 72 hrs by CCK8 assay; format: functional, cell-based
[14] = test system: MC-38; assay: Antitumor immunity against mouse MC-38 cells implanted in syngenic C57BL/6J mouse model assessed as increase in CD45+ cell proportion in tumor at 50 mg/kg, IG administered twice daily for 14 days by flow cytometric analysis; format: functional, organism-based; conditions: time 14.0 day
[15] = test system: MC-38; assay: Antitumor immunity against mouse MC-38 cells implanted in syngenic C57BL/6J mouse model assessed as increase in tumor infiltration of CD8+ T cells at 50 mg/kg, IG administered twice daily for 14 days by DAPI staining based immunofluorescence analysis; format: functional, organism-based; conditions: time 14.0 day
[16] = Upregulation of PD-L1 expression in mouse MC-38 cells at 10 uM incubated for 48 hrs by flow cytometric analysis (reference value: 23.3%); format: functional
[17] = test system: Jurkat T; assay: Activation of TCR signaling in human Jurkat T cells assessed as increase in ERK phosphorylation preincubated with compound for 1 hrs followed by anti-CD3 stimulation and measured after 45 mins by immunoblot analysis; format: cell-based; conditions: filed as activator, time 105.0 min
[18] = test system: MC-38; assay: Antitumor immunity against mouse MC-38 cells implanted in syngenic C57BL/6J mouse model assessed as upregulation of PD1 expression in CD4+ T cells at 50 mg/kg, IG administered twice daily for 14 days by flow cytometric analysis; format: functional, organism-based; conditions: time 14.0 day
[19] = Toxicity in C57BL/6J syngenic mouse implanted with mouse MC-38 cells assessed as effect on body weight at 50 mg/kg, IG administered twice daily for 14 days; format: organism-based; conditions: in vivo, po, 336 h, time 14 day
[20] = test system: MC-38; assay: Antitumor immunity against mouse MC-38 cells implanted in syngenic C57BL/6J mouse model assessed as increase in IFN-gamma expression at 50 mg/kg, IG administered twice daily for 14 days; format: functional, organism-based; conditions: time 14.0 day
[21] = test system: MC-38; assay: Antitumor immunity against mouse MC-38 cells implanted in syngenic C57BL/6J mouse model assessed as upregulation of PD-L1 expression in dendritic cells at 50 mg/kg, IG administered twice daily for 14 days by flow cytometric analysis; format: functional, organism-based; conditions: time 14.0 day
[22] = test system: Jurkat T; assay: Activation of TCR signaling in […] transfected human Jurkat T cells assessed as increase in LCK phosphorylation preincubated with compound for 1 hrs followed by anti-CD3 stimulation and measured after 45 mins by immunoblot analysis; format: cell-based; conditions: time 105.0 min

Structure (SMILES)	Activity [1]	Activity [2]	Activity [3]	inhibition in vivo at 50 mg/kg [4] [%]	Activity [6]	inhibition in vivo at 50 mg/kg [7] [%]	Activity [8]	Activity [9]	Activity [10]	Activity [11]	Activity [12]	Activity [13]	Activity [14]	Activity [15]	Activity [16] [%]	Activity [17]	Activity [18]	Activity [19]	Activity [20]	Activity [21]	also measured
O=C(O)c1cc2cc(N(Cc3ccc(OCc4ccccc4)cc3)S(=O)(=O)c3ccc(-c4ccccc4)cc3)ccc2o1	Active	Active	Active	94.3	Active	65	Active	Active	Active	Active	Active	inactive	Active	Active	46.1	Active	Active	Non-Toxic	Active	Active	Activity [5]: Active; Activity [22]: inactive
COc1ccc(-c2ccc(CN(c3ccc4oc(C(=O)O)cc4c3)S(=O)(=O)c3ccc(Cl)c([N+](=O)[O-])c3)cc2)cc1	Active	Active	Active	94.3	Active	69.6	Active	Active	Active	Active	Active	inactive	Active	Active	37.2	Active	Active	Non-Toxic	Active	Active	Activity [22]: inactive
